Measured values from PMC8151276, “An Integrated Approach toward NanoBRET Tracers for Analysis of GPCR Ligand Engagement” (Molecules, 2021).

Target: T1, ADCYAP1R1 (Homo sapiens, UniProt P41586)
T1 construct: purchased Promega (in-house HiBiT-GPCR construct library, NanoBRET)
T1 sequence (P41586 21-468): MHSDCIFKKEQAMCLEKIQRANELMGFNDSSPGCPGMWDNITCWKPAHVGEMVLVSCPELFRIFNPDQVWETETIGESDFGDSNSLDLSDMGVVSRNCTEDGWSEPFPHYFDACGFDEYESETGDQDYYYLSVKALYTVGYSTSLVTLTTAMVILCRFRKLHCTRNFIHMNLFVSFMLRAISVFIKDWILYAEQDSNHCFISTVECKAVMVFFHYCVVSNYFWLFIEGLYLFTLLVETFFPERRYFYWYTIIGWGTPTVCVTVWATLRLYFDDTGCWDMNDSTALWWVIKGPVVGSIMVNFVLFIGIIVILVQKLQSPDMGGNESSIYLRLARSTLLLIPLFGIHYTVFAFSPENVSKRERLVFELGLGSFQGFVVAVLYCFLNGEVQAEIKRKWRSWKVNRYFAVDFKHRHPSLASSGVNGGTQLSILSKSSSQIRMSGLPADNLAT
Assay: NanoBRET screen HiBiT-ADCYAP1R1 in HEK293
Format: binding
Experimental: Each tracer candidate was screened across the entire library of HiBiT-GPCR constructs using NanoBRET as the detection modality. As depicted in Figure 4A, the specificity of interactions was evaluated through decrease in BRET due to competitive displacement of a bound tracer by excess parental compound. Each tracer was analyzed for binding to each HiBiT-GPCR fusion in the absence and in the presence of competing parental compound. Briefly, HEK293 cells were transfected with HiBiT-GPCR constructs diluted into promoterless DNA to reduce expression and maximize translocation to the cell surface. Each tracer candidate was then screened at concentrations of 1 μM and 0.1 μM across cells expressing these fusions. Cells were treated for 1.5 h with tracer either alone or in the presence of 20 μM competing parental compound (i.e., control). BRET was measured upon addition of purified LgBiT and subsequent complementation with HiBiT genetically fused to a GPCR. The specificity of interactions was assessed through a decrease in BRET signal due to competitive displacement of the bound tracer. To further gauge the robustness of these interactions, the fold response over the control (i.e., BRETtracer/BRETcontrol) was calculated. We chose a 1.5-fold response, which translates to ≥7-fold signal over noise as the minimal threshold required to score an interaction as positive.
HiBiT-GPCR DNA constructs were diluted in 10 mM Tris pH 8 to a final concentration of 0.01 μg/μL, arrayed in 96-well plates and stored at −20 °C. For transfection, HEK293 cells were suspended in Opti-MEM (without phenol red) supplemented with 2% fetal bovine serum (Seradigm) and 100 units/mL penicillin–streptomycin (Gibco) at a final concentration of 220,000 cells/mL and dispensed into white 96-well plates at 90 μL/well. Subsequent transfections and screens were carried using an Agilent Bravo Automated Liquid Handling Platform. First, the 96-well HiBiT DNA arrays were diluted 25-fold in Opti-MEM (without serum or phenol red) to a final concentration of 0.0004 μg/μL and 20 μL of the diluted DNAs were transferred into new 96-well plates. Next, promoterless carrier DNA (1 μg/μL) was diluted 25-fold (0.04 μg/μL) and then dispensed into the diluted arrays at 20 μL/well. Following brief mixing, Viafect transfection reagent (Promega) diluted 16-fold into Opti-MEM was dispensed into the plates at 40 μL/well. After mixing by pipetting, plates were incubated for 10 min on the pipetting station deck. The DNA-transfection reagent complexes were then added to plates containing cells. To facilitate the screen, 10 μL of DNA-transfection reagent complexes were added in duplicates to the top 4 and bottom 4 rows, resulting in two identical 48-well arrays per plate. Plates with transfected cells were incubated for 18–20 h at 37 °C/5% CO2. A screen of each tracer across the entire library using two different concentrations requires duplicate plates of transfected cells. Depending on the number of tracers being screened, transfections can be scaled up using the same ratios. The next day, for each tracer, four 20× screening solutions in tracer dilution buffer (Promega) were prepared: two duplicates at final concentration of 20 μM and two duplicates at a final concentration of 2 μM. […] The four resulting solutions were diluted 4-fold in Opti-MEM without serum or phenol red to generate 5× solutions (5 µM and 0.5 µM tracer +/− 100 μM competing compound). To screen the library, a BioTek MultiFlo FX liquid dispenser was used to dispense 22.5 µL of tracer solution to the top 4 rows and 22.5 µL tracer + competing compound solution to the 4 bottom rows. Plates were briefly mixed on an orbital shaker and incubated for 1.5 h at room temperature. […] Plates were briefly mixed on an orbital shaker and incubated for 15 min to allow complementation.

Q: With `CCOC(=O)c1cc(C#N)c(N2CCC(C(=O)NS(=O)(=O)Cc3ccccc3/C=C/C(=O)NCCNC(=O)CCc3ccc4n3[B-](F)(F)[N+]3=C(c5ccc[nH]5)C=CC3=C4)CC2)nc1C` [AZD1283-1-NB590] as the compound, how does the “NanoBRET Fold Response” value (ADCYAP1R1, 0.1μM) read?
A: 0.93

Q: And the “NanoBRET Fold Response” value (ADCYAP1R1, 1μM)?
A: 0.96

Q: For `N#CN=C(NCCCOc1cccc(CN2CCCCC2)c1)NCCNC(=O)CCOCCOCCOCCOCCNC(=O)CCc1ccc2n1[B-](F)(F)[N+]1=C(c3ccc[nH]3)C=CC1=C2` [Aminopotentidine-2-NB590], which “NanoBRET Fold Response” value (ADCYAP1R1, tracer 0.1μM) is on record?
A: 1.00

Q: And the “NanoBRET Fold Response” value (ADCYAP1R1, tracer 1μM)?
A: 1.01

Q: For `CN(C)CCC=C1c2ccccc2CCc2ccc(C(=O)NCCNC(=O)CCOCCOCCOCCOCCNC(=O)CCc3ccc4n3[B-](F)(F)[N+]3=C(c5ccc[nH]5)C=CC3=C4)cc21` [Amitriptyline-b-2-NB590], which “NanoBRET Fold Response” value (ADCYAP1R1, tracer 0.1μM) is on record?
A: 0.99

Q: And the “NanoBRET Fold Response” value (ADCYAP1R1, tracer 1μM)?
A: 0.99

Q: Which “NanoBRET Fold Response” value (0.1μM tracer) does the source give for `COc1ccc2c(n1)c(CCNC(C)=O)cn2CCNC(=O)CCc1ccc2n1[B-](F)(F)[N+]1=C(c3ccc[nH]3)C=CC1=C2` [Azamelatonin-1-NB590] here?
A: 0.76

Q: And the “NanoBRET Fold Response” value (1μM tracer)?
A: 0.54

Q: For `COc1ccc2[nH]c(-c3ccc(CNC(=O)CCOCCOCCOCCOCCNC(=O)CCc4ccc5n4[B-](F)(F)[N+]4=C(c6ccc[nH]6)C=CC4=C5)cc3)c(CCNC(C)=O)c2n1` [AzomelatoninICO9-2-NB590], which “NanoBRET Fold Response” value (0.1μM tracer) is on record?
A: 1.08

Q: And the “NanoBRET Fold Response” value (1μM tracer)?
A: 0.91

Q: With `O=C(CCOCCOCCOCCOCCNC(=O)CCc1ccc2n1[B-](F)(F)[N+]1=C(c3ccc[nH]3)C=CC1=C2)NCCCN1CCN(C2=Nc3cc(Cl)ccc3Nc3ccccc32)CC1` [Clozapine-a-2-NB590] as the compound, how does the “NanoBRET Fold Response” value (ADCYAP1R1, 0.1μM tracer) read?
A: 1.00

Q: And the “NanoBRET Fold Response” value (ADCYAP1R1, 1μM tracer)?
A: 1.06

Q: How did the “NanoBRET Fold Response” value (ADCYAP1R1, 0.1μM tracer) turn out when `CN1CCN(C2=Nc3cc(Cl)ccc3Nc3ccc(CNC(=O)CCOCCOCCOCCOCCNC(=O)CCc4ccc5n4[B-](F)(F)[N+]4=C(c6ccc[nH]6)C=CC4=C5)cc32)CC1` [Clozapine-b-2-NB590] was run?
A: 1.04

Q: What about the “NanoBRET Fold Response” value (ADCYAP1R1, 1μM tracer) of the same compound?
A: 1.09

Q: Which results are given for `CN1CCN(C2=Nc3cc(Cl)ccc3N(CC(=O)NCCOCCOCCOCCOCCNC(=O)CCc3ccc4n3[B-](F)(F)[N+]3=C(c5ccc[nH]5)C=CC3=C4)c3ccccc32)CC1` [Clozapine-c-2-NB590]?
A: NanoBRET Fold Response (ADCYAP1R1, 0.1μM tracer): 0.97; NanoBRET Fold Response (ADCYAP1R1, 1μM tracer): 1.07

Q: Which results are given for `O=C(CCOCCOCCOCCOCCNC(=O)CCc1ccc2n1[B-](F)(F)[N+]1=C(c3ccc[nH]3)C=CC1=C2)NCCCN1CCN(C2=Nc3ccccc3Oc3ccc(Cl)cc32)CC1` [Loxapine-a-2-NB590]?
A: NanoBRET Fold Response (ADCYAP1R1, tracer 0.1μM): 1.03; NanoBRET Fold Response (ADCYAP1R1, tracer 1μM): 1.20

Q: Which results are given for `COc1ccccc1N1CCN(CCCCN2C(=O)c3ccc(CNC(=O)CCOCCOCCOCCOCCNC(=O)CCc4ccc5n4[B-](F)(F)[N+]4=C(c6ccc[nH]6)C=CC4=C5)cc3C2=O)CC1` [NAN-190-2-NB590]?
A: NanoBRET Fold Response (ADCYAP1R1, tracer 0.1μM): 1.08; NanoBRET Fold Response (ADCYAP1R1, tracer 1μM): 1.04

Q: With `COc1ccccc1N1CCN(CCCCN2C(=O)c3ccc(CNC(=O)CCOCCNC(=O)c4ccc(CNC(=O)CCc5ccc6n5[B-](F)(F)[N+]5=C(c7ccc[nH]7)C=CC5=C6)cc4)cc3C2=O)CC1` [NAN-190-3-NB590] as the compound, how does the “NanoBRET Fold Response” value (ADCYAP1R1, tracer 0.1μM) read?
A: 1.25

Q: What about the “NanoBRET Fold Response” value (ADCYAP1R1, tracer 1μM) of the same compound?
A: 1.00

Q: How did the “NanoBRET Fold Response” value (ADCYAP1R1, tracer 0.1μM) turn out when `O=C(CCc1ccc2n1[B-](F)(F)[N+]1=C(c3ccc[nH]3)C=CC1=C2)NCc1ccc(C(=O)NCCOCCC(=O)N[C@@H]2CC[C@@]3(O)[C@H]4Cc5ccc(O)c6c5[C@@]3(CCN4CC3CC3)[C@H]2O6)cc1` [Naltrexone-3-NB590] was run?
A: 0.88

Q: And the “NanoBRET Fold Response” value (ADCYAP1R1, tracer 1μM)?
A: 0.98

Q: With `Cc1cc2c(s1)Nc1ccccc1N=C2N1CCN(CCCNC(=O)CCOCCOCCOCCOCCNC(=O)CCc2ccc3n2[B-](F)(F)[N+]2=C(c4ccc[nH]4)C=CC2=C3)CC1` [Olanzapine-a-2-NB590] as the compound, how does the “NanoBRET Fold Response” value (ADCYAP1R1, tracer 0.1μM) read?
A: 1.02

Q: And the “NanoBRET Fold Response” value (ADCYAP1R1, tracer 1μM)?
A: 1.01

Q: What does the source list for `O=C(CCc1ccc2n1[B-](F)(F)[N+]1=C(c3ccc[nH]3)C=CC1=C2)NCc1ccc(C(=O)NCCOCCOCCNCC(O)COc2cccc3ccccc23)cc1` (centres unmarked) [Propranolol-3-NB590]?
A: NanoBRET Fold Response (ADCYAP1R1, 0.1μM): 1.00; NanoBRET Fold Response (ADCYAP1R1, 1μM): 0.97

Q: With `O=C(CCc1ccc2n1[B-](F)(F)[N+]1=C(c3ccc[nH]3)C=CC1=C2)NCCOCCOCCNC(=O)OCCOCCN1CCN(C2=Nc3ccccc3Sc3ccccc32)CC1` [Quetiapine-a-2-NB590] as the compound, how does the “NanoBRET Fold Response” value (ADCYAP1R1, tracer 0.1μM) read?
A: 1.03

Q: And the “NanoBRET Fold Response” value (ADCYAP1R1, tracer 1μM)?
A: 1.11

Q: How did the “NanoBRET Fold Response” value (ADCYAP1R1, tracer 0.1μM) turn out when `Cc1nc2n(c(=O)c1CCN1CCC(c3noc4cc(F)ccc34)CC1)CCCC2OC(=O)NCCOCCOCCOCCOCCNC(=O)CCc1ccc2n1[B-](F)(F)[N+]1=C(c3ccc[nH]3)C=CC1=C2` (centres unmarked) [Risperidone-2-NB590] was run?
A: 0.99

Q: What about the “NanoBRET Fold Response” value (ADCYAP1R1, tracer 1μM) of the same compound?
A: 1.02

Q: Which “NanoBRET Fold Response” value (ADCYAP1R1, tracer 0.1μM) does the source give for `CC(C)N(CC[C@H](c1ccccc1)c1cc(CCNC(=O)CCOCCOCCOCCOCCNC(=O)CCc2ccc3n2[B-](F)(F)[N+]2=C(c4ccc[nH]4)C=CC2=C3)ccc1O)C(C)C` [Tolterodine-2-NB590] here?
A: 0.68

Q: What about the “NanoBRET Fold Response” value (ADCYAP1R1, tracer 1μM) of the same compound?
A: 0.93

Q: Which “NanoBRET Fold Response” value (ADCYAP1R1, tracer 0.1μM) does the source give for `CC(C)N(CC[C@H](c1ccccc1)c1cc(CCNC(=O)c2ccc(CNC(=O)CCc3ccc4n3[B-](F)(F)[N+]3=C(c5ccc[nH]5)C=CC3=C4)cc2)ccc1O)C(C)C` [Tolterodine-BZ-NB590] here?
A: 1.04

Q: And the “NanoBRET Fold Response” value (ADCYAP1R1, tracer 1μM)?
A: 1.00

Q: How did the “NanoBRET Fold Response” value (ADCYAP1R1, tracer 0.1μM) turn out when `CCCn1c(=O)c2[nH]c(-c3ccc(OCC(=O)NCCNC(=O)CCOCCNC(=O)c4ccc(CNC(=O)CCc5ccc6n5[B-](F)(F)[N+]5=C(c7ccc[nH]7)C=CC5=C6)cc4)cc3)nc2n(CCC)c1=O` [XAC-3-NB590] was run?
A: 0.98

Q: What about the “NanoBRET Fold Response” value (ADCYAP1R1, tracer 1μM) of the same compound?
A: 0.97
